For this test, the system named is mosquito sodium channel (AaNav1-1). In words: Two-electrode voltage clamp of sodium channels expressed in Xenopus oocytes. In kind it is cell-based, Aedes aegypti. As to conditions: 20 ms step-depolarization before and after exposure; FIG. 4J. From the text:
FIG. 4A-4J illustrate that pyrethrin-induced repellency is synergized by (E)-β-farnesene via activation of both AaOr31 and sodium channels. […] FIG. 4B graphically illustrates repellency elicited by pyrethrin I (P-I) and pyrethrin II (P-II) at 10^−3 dilution in Orlando (wild-type) and orco^−/− mosquitoes (n=9 cages for Orlando control from 2 batches of mosquitoes; n=10 cages for orco−/− control from 2 batches of mosquitoes, P-I: U=31, n=11 cages for Orlando; and n=12 cages for orco−/− from 3 batches of mosquitoes, P-II: U=15; n=14 cages for Orlando; and n=15 cages for orco−/− from 4 batches of mosquitoes). […] The effect of pyrethrum was measured 10 minutes after its application. Pyrethrum-induced tail currents were recorded during a 100-pulse train of 5 milliseconds step depolarizations from −120 to −10 mV with 5 milliseconds inter-pulse intervals (Du et al. (2013)). The percentage of pyrethrum-modified channels was calculated using the following equation: M=[Itail/(Eh−ENa)]/[INa/(Et−ENa)]×100; where Itail is the maximal tail current amplitude, Eh is the potential to which the membrane is repolarized, ENa is the reversal potential for sodium currents determined from the current-voltage curve, INa is the amplitude of the peak current during depolarization before pyrethrum exposure, and Et is the potential of the step depolarization. […]

The values below come from patent publication US20210392882A1, “METHODS AND COMPOSITIONS FOR IMPROVED INSECT REPELLENCY” (Board of Trustees of Michigan State University, priority 2020, published 2021).

SMILES strings stand for the structures.

Consider `CC1(C)C2CCC1(C)C(O)C2` (single isomer, unassigned; (-)) [(−)-borneol], for which the “effect on peak current and channel gating” value was “no effects”.
